Results: patent EP4810052A2, “HCRHR2 SELECTIVE POLYPEPTIDES” (Gubra A/S, priority 2023, dated 2026)
Like-named read-outs stand apart in the source and are kept apart here. Starred links: 1 amine or outer side, 2 acyl side, 3 side chain; linkers in the order of their positions; H or OH if unused. Non-standard residues stand in square brackets, D forms with d. Residues, ends and D or L forms follow the SMILES beside them. Groups on a side chain read outwards from the residue. *: point of attachment. C20 diacid = O=C(O)CCCCCCCCCCCCCCCCCCC(=O)*; γGlu = O=C(O)[C@H](CCC(=O)[*:2])N[*:1]; Nle = CCCC[C@H](N)C(=O)O; AEEA = NCCOCCOCC(=O)O

Tests used:
hCRHR2 = target: T1, hCRHR2 (Homo sapiens, UniProt Q13324); assay: HTRF cAMP assay, determination of hCRHR2 potency (peptide libraries 5 conc., purified peptides 11 conc.); format: cell-based
T1 sequence (Q13324 1-411): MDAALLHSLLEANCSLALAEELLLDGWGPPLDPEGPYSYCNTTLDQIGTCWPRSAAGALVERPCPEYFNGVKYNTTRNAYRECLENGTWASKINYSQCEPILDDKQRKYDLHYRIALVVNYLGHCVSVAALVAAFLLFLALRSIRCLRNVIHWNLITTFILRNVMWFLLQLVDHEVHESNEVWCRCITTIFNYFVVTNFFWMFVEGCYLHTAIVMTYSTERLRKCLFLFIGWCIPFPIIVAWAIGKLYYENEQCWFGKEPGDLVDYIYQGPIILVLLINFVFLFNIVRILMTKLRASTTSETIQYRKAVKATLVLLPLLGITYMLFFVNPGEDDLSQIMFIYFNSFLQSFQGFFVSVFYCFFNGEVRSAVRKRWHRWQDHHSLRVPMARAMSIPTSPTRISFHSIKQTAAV
How it was run: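 CHO-K1 cells stably expressing human CRHR2 were thawed from frozen stocks immediately before use and assayed in suspension with agonist peptides. cAMP was measured by time-resolved FRET in a competitive immunoassay between cryptate-labelled anti-cAMP antibody and d2-labelled cAMP. EC50 values came from nonlinear regression, sigmoid variable-slope fit.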

hCRHR1 = target: T2, hCRHR1 (Homo sapiens, UniProt P34998); assay: HTRF cAMP assay, determination of hCRHR1 potency (peptide libraries 5 conc., purified peptides 11 conc.); format: cell-based
T2 sequence (P34998 24-415): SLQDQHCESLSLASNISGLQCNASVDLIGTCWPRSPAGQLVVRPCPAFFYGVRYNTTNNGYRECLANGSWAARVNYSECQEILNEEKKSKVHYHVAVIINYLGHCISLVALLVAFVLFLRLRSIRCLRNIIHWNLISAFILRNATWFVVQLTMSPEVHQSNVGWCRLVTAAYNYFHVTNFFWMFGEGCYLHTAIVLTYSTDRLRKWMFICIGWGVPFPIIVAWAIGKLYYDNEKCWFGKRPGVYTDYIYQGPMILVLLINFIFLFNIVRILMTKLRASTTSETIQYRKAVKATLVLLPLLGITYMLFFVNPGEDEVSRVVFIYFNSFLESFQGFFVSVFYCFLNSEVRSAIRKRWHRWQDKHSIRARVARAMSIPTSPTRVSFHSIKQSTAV
From the text: HTRF (CisBio) cAMP assay: The assay technology has thoroughly been described in the CisBio HTRF cAMP assay Kit manual (# 62AM4PEC). Briefly, time resolved fluorescence technic was applied to measure cAMP. This technic is based on a competitive immunoassay using cryptate-labelled anti-cAMP antibody and d2-labeled cAMP. In the absence of cellular cAMP, the anti-cAMP cryptate conjugate may get into proximity to cAMP-d2 conjugate and energy (FRET) can be transferred from cryptate to d2. CHO-K1 cells stably expressing the human corticotropin-releasing hormone receptor 1 (Eurofins/DiscoverX Cat #95-0047C2 hCRHR1 stable monoclonal cell lines) were used as cells in suspension, brought to life from frozen cell stocks immediately before assay performance. […] Concentration-response evaluation of compounds was performed with 5 concentrations of agonist peptides and EC50 values were calculated by nonlinear regression using sigmoid concentration-response with variable slope. Concentration-response evaluation of compounds was performed with 11 concentrations of agonist peptides and EC50 values were calculated by nonlinear regression using sigmoid concentration-response with variable slope.

[1] = Table 3, matched molecular pairs X^38 L vs Nle, peptide library of Example 4, read-out: hCRHR2 pEC50 (converted)
[2] = Table 3, matched molecular pairs X^38 L vs Nle, peptide library of Example 4, read-out: hCRHR1 pEC50 (converted)
[3] = library peptides, matched molecular pairs L vs Nle in position X^38, read-out: Potency hCRHR2 pEC50 (converted)
[4] = library peptides, matched molecular pairs L vs Nle in position X^38, read-out: Potency hCRHR1 pEC50 (converted)

| SMILES | EC50 (hCRHR2; [1]) [nM] | EC50 (hCRHR1; [2]) [nM] | EC50 (hCRHR2; [3]) [nM] | EC50 (hCRHR1; [4]) [nM] |
| --- | --- | --- | --- | --- |
| CCCC[C@H](NC(=O)[C@@H](NC(=O)[C@H](CCC(=O)O)NC(=O)[C@H](C)NC(=O)[C@H](CC(N)=O)NC(=O)[C@@H](NC(=O)[C@H](CCCCNC(=O)COCCOCCNC(=O)COCCOCCNC(=O)CC[C@H](NC(=O)CC[C@H](NC(=O)CCCCCCCCCCCCCCCCCCC(=O)O)C(=O)O)C(=O)O)NC(=O)[C@H](C)NC(=O)[C@H](CCC(N)=O)NC(=O)[C@H](CCC(N)=O)NC(=O)[C@H](CCCNC(=N)N)NC(=O)[C@H](C)NC(=O)[C@H](C)NC(=O)[C@H](CCCNC(=N)N)NC(=O)[C@H](C)NC(=O)[C@H](CCCNC(=N)N)NC(=O)[C@H](C)NC(=O)[C@H](CCC(N)=O)NC(=O)[C@H](CCC(=O)O)NC(=O)[C@H](CC(C)C)NC(=O)[C@H](CC(C)C)NC(=O)[C@@H](NC(=O)[C@H](CCC(N)=O)NC(=O)[C@H](CC(C)C)NC(=O)[C@H](CC(C)C)NC(=O)CNC(=O)[C@@H](NC(=O)[C@@H]1CCCN1C(=O)[C@@H](NC(=O)[C@H](CC(=O)O)NC(=O)[C@H](CC(C)C)NC(=O)[C@H](CO)NC(=O)[C@H](CC(C)C)NC(=O)[C@@H](NC(=O)[C@@H](N)[C@@H](C)CC)C(C)C)C(C)C)[C@@H](C)CC)[C@@H](C)CC)[C@@H](C)O)[C@@H](C)CC)C(=O)N[C@@H](C)C(=O)N[C@@H](CCC(=O)O)C(=O)N[C@H](C(N)=O)[C@@H](C)CC [SEQ ID NO: 28] (H-IVLSLDVPIGLLQILLEQARARAARQQAK([AEEA-AEEA-γGlu-γGlu-C20 diacid])TNAEI[Nle]AEI-NH2) | 0.158 | 1260 |  |  |
| CC[C@H](C)[C@H](N)C(=O)N[C@H](C(=O)N[C@@H](CC(C)C)C(=O)N[C@@H](CO)C(=O)N[C@@H](CC(C)C)C(=O)N[C@@H](CC(=O)O)C(=O)N[C@H](C(=O)N1CCC[C@H]1C(=O)N[C@H](C(=O)NCC(=O)N[C@@H](CC(C)C)C(=O)N[C@@H](CC(C)C)C(=O)N[C@@H](CCC(N)=O)C(=O)N[C@H](C(=O)N[C@@H](CC(C)C)C(=O)N[C@@H](CC(C)C)C(=O)N[C@@H](CCC(=O)O)C(=O)N[C@@H](CCC(N)=O)C(=O)N[C@@H](C)C(=O)N[C@@H](CCCNC(=N)N)C(=O)N[C@@H](C)C(=O)N[C@@H](CCC(=O)O)C(=O)N[C@@H](CO)C(=O)N[C@@H](C)C(=O)N[C@@H](CCCNC(=N)N)C(=O)N[C@@H](CCC(=O)O)C(=O)N[C@@H](CCCNC(=N)N)C(=O)N[C@@H](C)C(=O)N[C@@H](CCCCNC(=O)COCCOCCNC(=O)COCCOCCNC(=O)CC[C@H](NC(=O)CC[C@H](NC(=O)CCCCCCCCCCCCCCCCCCC(=O)O)C(=O)O)C(=O)O)C(=O)N[C@H](C(=O)N[C@@H](CC(N)=O)C(=O)N[C@@H](C)C(=O)N[C@@H](CCC(=O)O)C(=O)N[C@H](C(=O)N[C@@H](CC(C)C)C(=O)N[C@@H](C)C(=O)N[C@@H](CCC(=O)O)C(=O)N[C@H](C(N)=O)[C@@H](C)CC)[C@@H](C)CC)[C@@H](C)O)[C@@H](C)CC)[C@@H](C)CC)C(C)C)C(C)C [SEQ ID NO: 21] (H-IVLSLDVPIGLLQILLEQARAESARERAK([AEEA-AEEA-γGlu-γGlu-C20 diacid])TNAEILAEI-NH2) | 0.794 | 63100 |  |  |
| CCCC[C@H](NC(=O)[C@@H](NC(=O)[C@H](CCC(=O)O)NC(=O)[C@H](C)NC(=O)[C@H](CC(N)=O)NC(=O)[C@@H](NC(=O)[C@H](CCCCNC(=O)COCCOCCNC(=O)COCCOCCNC(=O)CC[C@H](NC(=O)CC[C@H](NC(=O)CCCCCCCCCCCCCCCCCCC(=O)O)C(=O)O)C(=O)O)NC(=O)[C@H](C)NC(=O)[C@H](CCC(N)=O)NC(=O)[C@H](CCC(=O)O)NC(=O)[C@H](CCCNC(=N)N)NC(=O)[C@H](CCC(N)=O)NC(=O)[C@H](C)NC(=O)[C@H](CCC(N)=O)NC(=O)[C@H](C)NC(=O)[C@H](CCCNC(=N)N)NC(=O)[C@H](C)NC(=O)[C@H](CCC(N)=O)NC(=O)[C@H](CCC(=O)O)NC(=O)[C@H](CC(C)C)NC(=O)[C@H](CC(C)C)NC(=O)[C@@H](NC(=O)[C@H](CCC(N)=O)NC(=O)[C@H](CC(C)C)NC(=O)[C@H](CC(C)C)NC(=O)CNC(=O)[C@@H](NC(=O)[C@@H]1CCCN1C(=O)[C@@H](NC(=O)[C@H](CC(=O)O)NC(=O)[C@H](CC(C)C)NC(=O)[C@H](CO)NC(=O)[C@H](CC(C)C)NC(=O)[C@@H](NC(=O)[C@@H](N)[C@@H](C)CC)C(C)C)C(C)C)[C@@H](C)CC)[C@@H](C)CC)[C@@H](C)O)[C@@H](C)CC)C(=O)N[C@@H](C)C(=O)N[C@@H](CCC(=O)O)C(=O)N[C@H](C(N)=O)C(C)C [SEQ ID NO: 32] (H-IVLSLDVPIGLLQILLEQARAQAQREQAK([AEEA-AEEA-γGlu-γGlu-C20 diacid])TNAEI[Nle]AEV-NH2) | 0.316 | 25.1 |  |  |
| CC[C@H](C)[C@H](N)C(=O)N[C@H](C(=O)N[C@@H](CC(C)C)C(=O)N[C@@H](CO)C(=O)N[C@@H](CC(C)C)C(=O)N[C@@H](CC(=O)O)C(=O)N[C@H](C(=O)N1CCC[C@H]1C(=O)N[C@H](C(=O)NCC(=O)N[C@@H](CC(C)C)C(=O)N[C@@H](CC(C)C)C(=O)N[C@@H](CCC(N)=O)C(=O)N[C@H](C(=O)N[C@@H](CC(C)C)C(=O)N[C@@H](CC(C)C)C(=O)N[C@@H](CCC(=O)O)C(=O)N[C@@H](CCC(N)=O)C(=O)N[C@@H](C)C(=O)N[C@@H](CCCNC(=N)N)C(=O)N[C@@H](C)C(=O)N[C@@H](CCCNC(=N)N)C(=O)N[C@H](C(=O)N[C@@H](C)C(=O)N[C@@H](CCCNC(=N)N)C(=O)N[C@@H](CCC(=O)O)C(=O)N[C@@H](CCC(N)=O)C(=O)N[C@@H](C)C(=O)N[C@@H](CCCCNC(=O)COCCOCCNC(=O)COCCOCCNC(=O)CC[C@H](NC(=O)CC[C@H](NC(=O)CCCCCCCCCCCCCCCCCCC(=O)O)C(=O)O)C(=O)O)C(=O)N[C@H](C(=O)N[C@@H](CC(N)=O)C(=O)N[C@@H](C)C(=O)N[C@@H](CCC(=O)O)C(=O)N[C@H](C(=O)N[C@@H](CC(C)C)C(=O)N[C@@H](C)C(=O)N[C@@H](CCC(=O)O)C(=O)N[C@H](C(N)=O)C(C)C)[C@@H](C)CC)[C@@H](C)O)C(C)C)[C@@H](C)CC)[C@@H](C)CC)C(C)C)C(C)C [compound 90] (H-IVLSLDVPIGLLQILLEQARARVAREQAK([AEEA-AEEA-γGlu-γGlu-C20 diacid])TNAEILAEV-NH2) |  |  | 1 | 20000 |
| CCCC[C@H](NC(=O)[C@@H](NC(=O)[C@H](CCC(=O)O)NC(=O)[C@H](C)NC(=O)[C@H](CC(N)=O)NC(=O)[C@@H](NC(=O)[C@H](CCCCNC(=O)COCCOCCNC(=O)COCCOCCNC(=O)CC[C@H](NC(=O)CC[C@H](NC(=O)CCCCCCCCCCCCCCCCCCC(=O)O)C(=O)O)C(=O)O)NC(=O)[C@H](C)NC(=O)[C@H](CCC(N)=O)NC(=O)[C@H](CCC(=O)O)NC(=O)[C@H](CCCNC(=N)N)NC(=O)[C@H](C)NC(=O)[C@@H](NC(=O)[C@H](CCCNC(=N)N)NC(=O)[C@H](C)NC(=O)[C@H](CCCNC(=N)N)NC(=O)[C@H](C)NC(=O)[C@H](CCC(N)=O)NC(=O)[C@H](CCC(=O)O)NC(=O)[C@H](CC(C)C)NC(=O)[C@H](CC(C)C)NC(=O)[C@@H](NC(=O)[C@H](CCC(N)=O)NC(=O)[C@H](CC(C)C)NC(=O)[C@H](CC(C)C)NC(=O)CNC(=O)[C@@H](NC(=O)[C@@H]1CCCN1C(=O)[C@@H](NC(=O)[C@H](CC(=O)O)NC(=O)[C@H](CC(C)C)NC(=O)[C@H](CO)NC(=O)[C@H](CC(C)C)NC(=O)[C@@H](NC(=O)[C@@H](N)[C@@H](C)CC)C(C)C)C(C)C)[C@@H](C)CC)[C@@H](C)CC)C(C)C)[C@@H](C)O)[C@@H](C)CC)C(=O)N[C@@H](C)C(=O)N[C@@H](CCC(=O)O)C(=O)N[C@H](C(N)=O)C(C)C [compound 91] (H-IVLSLDVPIGLLQILLEQARARVAREQAK([AEEA-AEEA-γGlu-γGlu-C20 diacid])TNAEI[Nle]AEV-NH2) |  |  | 0.398 | 1.58 |
